In ChEMBL document CHEMBL4507286 (2021):

Legend:
[1] = target: TGF-beta receptor type-2 (Homo sapiens) (UniProt P37173)
[2] = target: Bone morphogenetic protein receptor type-2 (Homo sapiens) (UniProt Q13873)
[3] = target: RAC-alpha serine/threonine-protein kinase (Homo sapiens) (UniProt P31749)
[4] = target: 5-hydroxytryptamine receptor 2B (Homo sapiens, UniProt P41595); conditions: Compound concentration 10.0 uM
[5] = target: Activin receptor type-2A (Homo sapiens) (UniProt P27037)
[6] = target: Tyrosine-protein kinase receptor UFO (Homo sapiens) (UniProt P30530)
[7] = target: Sodium-dependent serotonin transporter (Homo sapiens) (UniProt P31645); conditions: Compound concentration 10.0 uM
[8] = target: Ephrin type-A receptor 5 (Homo sapiens) (UniProt P54756)
[9] = target: Cyclin-dependent kinase 11B (Homo sapiens) (UniProt P21127)
[10] = target: Calcium/calmodulin-dependent protein kinase type IV (Homo sapiens) (UniProt Q16566)
[11] = tested on: Proto-oncogene tyrosine-protein kinase receptor Ret (Homo sapiens), P07949 [M918T]
[12] = target: Casein kinase I isoform epsilon (Homo sapiens) (UniProt P49674)
[13] = target: Tyrosine-protein kinase Yes (Homo sapiens) (UniProt P07947)
[14] = target: Myosin-IIIb (Homo sapiens) (UniProt Q8WXR4)
[15] = target: Epithelial discoidin domain-containing receptor 1 (Homo sapiens) (UniProt Q08345)
[16] = target: Tyrosine-protein kinase ITK/TSK (Homo sapiens) (UniProt Q08881)
[17] = target: Myosin-IIIa (Homo sapiens) (UniProt Q8NEV4)
[18] = tested on: Receptor-type tyrosine-protein kinase FLT3 (Homo sapiens), P36888 [D835Y]
[19] = target: Serine/threonine-protein kinase ULK2 (Homo sapiens) (UniProt Q8IYT8)
[20] = target: Ephrin type-A receptor 4 (Homo sapiens) (UniProt P54764)
[21] = target: Serine/threonine-protein kinase Sgk1 (Homo sapiens) (UniProt O00141)
[22] = target: Serine/threonine-protein kinase 38 (Homo sapiens) (UniProt Q15208)
[23] = target: Serine/threonine-protein kinase BRSK2 (Homo sapiens) (UniProt Q8IWQ3)
[24] = target: Phosphatidylinositol 4,5-bisphosphate 3-kinase catalytic subunit gamma isoform (Homo sapiens) (UniProt P48736)
[25] = target: Mitogen-activated protein kinase kinase kinase kinase 5 (Homo sapiens) (UniProt Q9Y4K4)
[26] = target: Histamine H3 receptor (Homo sapiens) (UniProt Q9Y5N1); conditions: Compound concentration 10.0 uM
[27] = target: Ribosomal protein S6 kinase alpha-2 (Homo sapiens) (UniProt Q15349)
[28] = target: Histamine H1 receptor (Homo sapiens) (UniProt P35367); conditions: Compound concentration 10.0 uM
[29] = target: Mitogen-activated protein kinase kinase kinase kinase 3 (Homo sapiens) (UniProt Q8IVH8)
[30] = target: Serine/threonine-protein kinase PLK3 (Homo sapiens) (UniProt Q9H4B4)
[31] = target: Non-receptor tyrosine-protein kinase TYK2 (Homo sapiens) (UniProt P29597)
[32] = target: Serine/threonine-protein kinase Nek5 (Homo sapiens) (UniProt Q6P3R8)
[33] = target: Rho-associated protein kinase 2 (Homo sapiens) (UniProt O75116)
[34] = target: Mitogen-activated protein kinase 13 (Homo sapiens) (UniProt O15264)
[35] = target: Cyclin-G-associated kinase (Homo sapiens) (UniProt O14976)
[36] = target: Death-associated protein kinase 1 (Homo sapiens) (UniProt P53355)
[37] = target: Ribosomal protein S6 kinase alpha-5 (Homo sapiens) (UniProt O75582)
[38] = target: Muscarinic acetylcholine receptor M4 (Homo sapiens) (UniProt P08173); conditions: Compound concentration 10.0 uM
[39] = target: Calcium/calmodulin-dependent protein kinase kinase 2 (Homo sapiens) (UniProt Q96RR4)
[40] = target: Dual specificity protein kinase CLK2 (Homo sapiens, UniProt P49760)
[41] = target: Fibroblast growth factor receptor 2 (Homo sapiens) (UniProt P21802)
[42] = target: Proto-oncogene tyrosine-protein kinase Src (Homo sapiens) (UniProt P12931)
[43] = target: Myotonin-protein kinase (Homo sapiens) (UniProt Q09013)
[44] = target: Fibroblast growth factor receptor 4 (Homo sapiens) (UniProt P22455)
[45] = target: Microtubule-associated serine/threonine-protein kinase 1 (Homo sapiens) (UniProt Q9Y2H9)
[46] = target: Insulin receptor (Homo sapiens) (UniProt P06213)
[47] = Compound concentration 1000.0 nM
[48] = Compound concentration 100.0 nM

Ephrin type-A receptor 4 (Homo sapiens), sequence (P54764 whole entry): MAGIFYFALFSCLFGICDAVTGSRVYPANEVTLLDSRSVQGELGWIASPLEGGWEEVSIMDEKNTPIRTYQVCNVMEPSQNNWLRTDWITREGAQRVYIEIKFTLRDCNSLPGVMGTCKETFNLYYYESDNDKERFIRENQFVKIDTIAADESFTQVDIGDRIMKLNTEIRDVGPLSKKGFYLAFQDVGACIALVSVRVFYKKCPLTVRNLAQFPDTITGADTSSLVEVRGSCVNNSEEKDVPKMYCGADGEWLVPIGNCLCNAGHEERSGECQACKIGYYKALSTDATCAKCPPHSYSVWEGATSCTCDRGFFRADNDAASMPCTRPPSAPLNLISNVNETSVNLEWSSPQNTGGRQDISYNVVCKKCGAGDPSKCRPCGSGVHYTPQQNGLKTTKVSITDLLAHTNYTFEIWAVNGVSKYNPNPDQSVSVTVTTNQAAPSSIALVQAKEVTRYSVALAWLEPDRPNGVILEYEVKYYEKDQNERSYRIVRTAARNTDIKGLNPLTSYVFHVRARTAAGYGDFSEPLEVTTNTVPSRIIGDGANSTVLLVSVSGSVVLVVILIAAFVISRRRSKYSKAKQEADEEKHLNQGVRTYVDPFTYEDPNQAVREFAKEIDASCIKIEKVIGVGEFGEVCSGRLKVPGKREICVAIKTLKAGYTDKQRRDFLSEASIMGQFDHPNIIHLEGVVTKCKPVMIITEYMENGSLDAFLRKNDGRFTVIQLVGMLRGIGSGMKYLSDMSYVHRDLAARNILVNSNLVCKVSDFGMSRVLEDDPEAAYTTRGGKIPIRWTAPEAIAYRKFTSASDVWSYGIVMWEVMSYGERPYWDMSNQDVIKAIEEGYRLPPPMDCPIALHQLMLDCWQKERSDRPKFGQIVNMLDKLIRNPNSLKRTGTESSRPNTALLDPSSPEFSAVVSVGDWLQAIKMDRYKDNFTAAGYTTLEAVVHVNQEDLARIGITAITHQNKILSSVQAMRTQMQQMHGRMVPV
Mitogen-activated protein kinase 13 (Homo sapiens), sequence (O15264 whole entry): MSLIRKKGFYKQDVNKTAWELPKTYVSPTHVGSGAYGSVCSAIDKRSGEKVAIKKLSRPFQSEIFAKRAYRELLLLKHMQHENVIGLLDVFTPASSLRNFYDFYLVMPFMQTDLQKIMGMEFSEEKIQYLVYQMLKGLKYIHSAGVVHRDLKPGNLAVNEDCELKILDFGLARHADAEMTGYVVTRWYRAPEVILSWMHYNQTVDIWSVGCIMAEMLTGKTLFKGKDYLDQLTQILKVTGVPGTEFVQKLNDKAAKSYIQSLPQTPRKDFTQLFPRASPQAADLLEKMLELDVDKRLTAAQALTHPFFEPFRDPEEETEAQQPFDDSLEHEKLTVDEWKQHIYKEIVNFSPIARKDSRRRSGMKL
Dual specificity protein kinase CLK2, sequence (P49760 whole entry, looked up): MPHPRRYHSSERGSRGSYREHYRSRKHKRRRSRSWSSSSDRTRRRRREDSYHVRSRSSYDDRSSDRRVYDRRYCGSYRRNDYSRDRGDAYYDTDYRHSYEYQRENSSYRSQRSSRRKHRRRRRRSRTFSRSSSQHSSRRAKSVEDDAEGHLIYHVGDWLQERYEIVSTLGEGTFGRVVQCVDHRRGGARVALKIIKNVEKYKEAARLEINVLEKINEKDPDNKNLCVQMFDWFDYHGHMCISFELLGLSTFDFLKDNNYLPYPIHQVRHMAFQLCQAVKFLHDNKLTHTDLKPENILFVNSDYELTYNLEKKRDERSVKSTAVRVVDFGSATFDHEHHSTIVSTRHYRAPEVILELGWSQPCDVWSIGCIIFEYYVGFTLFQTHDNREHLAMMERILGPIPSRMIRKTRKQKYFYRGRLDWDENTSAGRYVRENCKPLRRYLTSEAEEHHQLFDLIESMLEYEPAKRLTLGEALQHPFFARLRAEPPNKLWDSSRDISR
Sodium-dependent serotonin transporter (Homo sapiens), sequence (P31645 whole entry, looked up): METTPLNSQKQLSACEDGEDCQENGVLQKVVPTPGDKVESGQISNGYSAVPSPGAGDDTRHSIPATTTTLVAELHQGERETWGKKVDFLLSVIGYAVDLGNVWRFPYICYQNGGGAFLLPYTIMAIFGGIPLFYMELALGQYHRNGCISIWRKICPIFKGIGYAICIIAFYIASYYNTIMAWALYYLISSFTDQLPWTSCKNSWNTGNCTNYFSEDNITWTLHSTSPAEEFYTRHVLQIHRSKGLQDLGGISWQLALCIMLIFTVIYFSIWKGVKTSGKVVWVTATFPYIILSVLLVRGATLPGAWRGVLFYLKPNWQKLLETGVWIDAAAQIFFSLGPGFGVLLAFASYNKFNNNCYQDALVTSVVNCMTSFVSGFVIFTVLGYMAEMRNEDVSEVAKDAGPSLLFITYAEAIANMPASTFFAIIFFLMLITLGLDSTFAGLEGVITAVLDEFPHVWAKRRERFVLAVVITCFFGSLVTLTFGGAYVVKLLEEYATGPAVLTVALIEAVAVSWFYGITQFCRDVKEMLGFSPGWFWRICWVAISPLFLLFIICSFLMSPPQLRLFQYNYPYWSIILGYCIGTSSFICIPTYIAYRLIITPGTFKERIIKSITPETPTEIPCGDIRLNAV
Calcium/calmodulin-dependent protein kinase type IV (Homo sapiens), sequence (Q16566 whole entry): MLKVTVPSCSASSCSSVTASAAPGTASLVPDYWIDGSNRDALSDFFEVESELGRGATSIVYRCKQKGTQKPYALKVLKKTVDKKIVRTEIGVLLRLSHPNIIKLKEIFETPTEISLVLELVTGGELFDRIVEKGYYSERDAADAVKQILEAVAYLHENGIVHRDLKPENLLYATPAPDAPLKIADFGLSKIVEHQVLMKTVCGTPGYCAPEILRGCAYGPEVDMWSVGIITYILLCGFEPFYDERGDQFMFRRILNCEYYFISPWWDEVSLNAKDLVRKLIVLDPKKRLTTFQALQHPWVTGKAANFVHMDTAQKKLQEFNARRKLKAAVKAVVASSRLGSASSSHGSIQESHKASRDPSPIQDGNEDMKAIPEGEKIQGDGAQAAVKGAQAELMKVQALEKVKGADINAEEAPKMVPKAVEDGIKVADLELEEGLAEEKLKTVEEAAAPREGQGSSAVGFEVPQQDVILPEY
Histamine H3 receptor (Homo sapiens), sequence (Q9Y5N1 whole entry): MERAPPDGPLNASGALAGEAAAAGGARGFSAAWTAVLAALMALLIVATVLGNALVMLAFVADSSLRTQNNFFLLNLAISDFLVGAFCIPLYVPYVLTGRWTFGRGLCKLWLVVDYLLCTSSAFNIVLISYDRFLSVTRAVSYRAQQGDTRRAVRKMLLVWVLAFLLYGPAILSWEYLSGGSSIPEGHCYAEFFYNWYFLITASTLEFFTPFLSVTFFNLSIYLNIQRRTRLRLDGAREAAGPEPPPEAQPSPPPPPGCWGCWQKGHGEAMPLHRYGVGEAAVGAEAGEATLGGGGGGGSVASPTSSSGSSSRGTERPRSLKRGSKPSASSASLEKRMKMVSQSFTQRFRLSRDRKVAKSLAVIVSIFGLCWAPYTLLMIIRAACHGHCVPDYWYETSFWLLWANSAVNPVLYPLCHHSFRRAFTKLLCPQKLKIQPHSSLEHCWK
Serine/threonine-protein kinase BRSK2 (Homo sapiens), sequence (Q8IWQ3 whole entry, canonical isoform): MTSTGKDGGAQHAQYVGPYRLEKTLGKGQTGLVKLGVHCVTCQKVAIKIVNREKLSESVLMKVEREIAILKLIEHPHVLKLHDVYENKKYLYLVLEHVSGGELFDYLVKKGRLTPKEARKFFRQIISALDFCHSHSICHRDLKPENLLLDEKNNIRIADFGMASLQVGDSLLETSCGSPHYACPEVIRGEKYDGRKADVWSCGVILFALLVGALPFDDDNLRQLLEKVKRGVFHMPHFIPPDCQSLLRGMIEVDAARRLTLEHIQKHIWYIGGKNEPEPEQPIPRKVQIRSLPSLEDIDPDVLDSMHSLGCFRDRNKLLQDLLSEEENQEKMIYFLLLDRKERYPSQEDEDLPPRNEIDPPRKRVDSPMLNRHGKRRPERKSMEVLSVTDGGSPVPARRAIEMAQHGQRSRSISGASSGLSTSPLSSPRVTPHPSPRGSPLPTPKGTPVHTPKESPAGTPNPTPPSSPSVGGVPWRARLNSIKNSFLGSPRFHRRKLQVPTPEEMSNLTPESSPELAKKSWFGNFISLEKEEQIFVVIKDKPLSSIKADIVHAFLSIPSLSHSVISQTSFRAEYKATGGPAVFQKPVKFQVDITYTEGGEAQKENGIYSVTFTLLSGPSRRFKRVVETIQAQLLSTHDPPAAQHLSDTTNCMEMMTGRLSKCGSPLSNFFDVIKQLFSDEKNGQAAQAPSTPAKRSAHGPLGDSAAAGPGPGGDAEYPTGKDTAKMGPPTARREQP
Serine/threonine-protein kinase PLK3 (Homo sapiens), sequence (Q9H4B4 whole entry, looked up): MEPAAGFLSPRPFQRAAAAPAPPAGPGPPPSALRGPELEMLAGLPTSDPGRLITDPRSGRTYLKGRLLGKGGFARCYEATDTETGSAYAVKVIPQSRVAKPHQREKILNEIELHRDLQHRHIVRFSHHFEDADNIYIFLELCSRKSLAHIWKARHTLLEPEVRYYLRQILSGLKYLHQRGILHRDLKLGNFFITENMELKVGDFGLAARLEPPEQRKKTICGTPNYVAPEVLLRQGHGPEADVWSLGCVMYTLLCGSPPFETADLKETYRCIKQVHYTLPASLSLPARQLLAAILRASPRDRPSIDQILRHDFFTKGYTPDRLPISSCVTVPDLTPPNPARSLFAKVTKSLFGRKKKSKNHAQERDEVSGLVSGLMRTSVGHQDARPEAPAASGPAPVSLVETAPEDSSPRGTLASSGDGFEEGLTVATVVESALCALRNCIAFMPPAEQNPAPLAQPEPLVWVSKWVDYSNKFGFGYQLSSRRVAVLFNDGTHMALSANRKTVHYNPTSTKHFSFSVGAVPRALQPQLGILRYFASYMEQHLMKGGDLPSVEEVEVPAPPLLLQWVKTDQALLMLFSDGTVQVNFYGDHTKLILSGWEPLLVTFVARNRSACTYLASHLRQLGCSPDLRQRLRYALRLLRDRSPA

## C[C@H](NC(=O)Nc1cc2[nH]ncc2c(CO)n1)c1ccccn1 [ERKi-NC]
[1]; [47]
  residual activity: 76.1%
[2]; [47]
  residual activity: 100%
[3]; [47]
  residual activity: 90%
[4]
  inhibition: 90.9%
[5]; [47]
  residual activity: 85.6%
[6]; [47]
  residual activity: 100%
[7]
  inhibition: -0.787%
[8]; [47]
  residual activity: 100%
[9]; [47]
  residual activity: 94.2%
[10]; [47]
  residual activity: 96.4%
[11]; [47]
  residual activity: 100%
[12]; [47]
  residual activity: 96.1%
[13]; [47]
  residual activity: 100%
[14]; [47]
  residual activity: 67.6%
[15]; [47]
  residual activity: 74.7%
[16]; [47]
  residual activity: 100%
[17]; [47]
  residual activity: 100%
[18]; [47]
  residual activity: 96.8%
[19]; [47]
  residual activity: 100%
[20]; [47]
  residual activity: 61%
[21]; [47]
  residual activity: 97.4%
[22]; [47]
  residual activity: 81.4%
[23]; [47]
  residual activity: 88%
[24]; [47]
  residual activity: 100%
[25]; [47]
  residual activity: 99.6%
[26]
  inhibition: 21.1%
[27]; [47]
  residual activity: 95.3%
[28]
  inhibition: 4.18%
[29]; [47]
  residual activity: 100%
[30]; [47]
  residual activity: 68.7%
[31]; [47]
  residual activity: 100%
[32]; [47]
  residual activity: 84.3%
[33]; [47]
  residual activity: 88.4%
[34]; [47]
  residual activity: 85%
[35]; [47]
  residual activity: 100%
[36]; [47]
  residual activity: 100%
[37]; [47]
  residual activity: 100%
[38]
  inhibition: 18.7%
[39]; [47]
  residual activity: 85.4%
[40]; [47]
  residual activity: 100%
[41]; [47]
  residual activity: 62%
[42]; [47]
  residual activity: 100%
[43]; [47]
  residual activity: 100%
[44]; [47]
  residual activity: 100%
[45]; [47]
  residual activity: 100%
[46]; [47]
  residual activity: 100%

## C[C@@H](NC(=O)Nc1cc2[nH]ncc2c(CO)n1)c1ccccc1 [ERKi]
[1]; [48]
  residual activity: 40.8%
[2]; [48]
  residual activity: 70.3%
[3]; [48]
  residual activity: 100%
[4]
  inhibition: 13.1%
[5]; [48]
  residual activity: 74.7%
[6]; [48]
  residual activity: 77.9%
[7]
  inhibition: 2.86%
[8]; [48]
  residual activity: 87.9%
[9]; [48]
  residual activity: 97.4%
[10]; [48]
  residual activity: 100%
[11]; [48]
  residual activity: 100%
[12]; [48]
  residual activity: 95.1%
[13]; [48]
  residual activity: 96.9%
[14]; [48]
  residual activity: 82.5%
[15]; [48]
  residual activity: 100%
[16]; [48]
  residual activity: 83.2%
[17]; [48]
  residual activity: 100%
[18]; [48]
  residual activity: 86.2%
[19]; [48]
  residual activity: 79.7%
[20]; [48]
  residual activity: 100%
[21]; [48]
  residual activity: 62.5%
[22]; [48]
  residual activity: 75.2%
[23]; [48]
  residual activity: 89.3%
[24]; [48]
  residual activity: 96.4%
[25]; [48]
  residual activity: 86.8%
[26]
  inhibition: 7.46%
[27]; [48]
  residual activity: 94.1%
[28]
  inhibition: -7.28%
[29]; [48]
  residual activity: 84.5%
[30]; [48]
  residual activity: 89%
[31]; [48]
  residual activity: 97.8%
[32]; [48]
  residual activity: 97.6%
[33]; [48]
  residual activity: 44.7%
[34]; [48]
  residual activity: 100%
[35]; [48]
  residual activity: 100%
[36]; [48]
  residual activity: 90.5%
[37]; [48]
  residual activity: 82.7%
[38]
  inhibition: -0.569%
[39]; [48]
  residual activity: 75.2%
[40]; [48]
  residual activity: 68.5%
[41]; [48]
  residual activity: 100%
[42]; [48]
  residual activity: 94.6%
[43]; [48]
  residual activity: 80.5%
[44]; [48]
  residual activity: 100%
[45]; [48]
  residual activity: 93.9%
[46]; [48]
  residual activity: 74.7%
